The test system of data set [1] is Plasmodium falciparum. Description: MMV: Inhibition of Plasmodium falciparum 3D7 at 2uM compound concentration. In kind it is functional.
For data set [2], the system named is Plasmodium falciparum. The data set is described as follows: MMV: Inhibition of Plasmodium falciparum 3D7 (EC50). It counts as functional, organism-based.
In another data set the test system is Trypanosoma cruzi. The data set is described as follows: MMV: Inhibition of Trypanosoma cruzi (Tulahuen C4 LacZ) (Chagas in vitro). It counts as functional, organism-based.
The test system of data set [3] is Trypanosoma brucei brucei. The data set is described as follows: MMV: Inhibition of Trypanosoma brucei brucei (Squib 427) (HAT in vitro). It counts as functional, organism-based.
Data set [4] deals with Trypanosoma brucei rhodesiense. The data set is described as follows: MMV: Inhibition of Trypanosoma brucei rhodesiense (STIB 900) (HAT in vitro). In kind it is functional, organism-based.
The test system of another data set is Leishmania infantum. Description: MMV: Inhibition of Leishmania infantum (MHOM/MA/BE/67) in vitro. In kind it is functional, organism-based.
Data set [5] can be described thus: MMV: Cytotoxicity against human fibroblasts (MRC-5) cells. The settings on record: MRC-5 cells (human fibroblasts).

A value given as a limit tells only on which side of the number the result lay.

Usually inhibition stands for how much of the control response was suppressed. Higher therefore signals strong suppression. The term EC50 denotes the concentration needed to bring the measured effect to its halfway point. Low values mean higher potency in that assay, high ones lower potency in that assay. The IC50 is the point on the concentration scale where inhibition reaches its midpoint. Higher therefore signals lower potency. The molecule `COc1cccc(Nc2nc(N)c3ccccc3n2)c1` displayed an inhibition at 2 µM in the data set on Plasmodium falciparum [1] of 94%. The molecule further gave an EC50 in the data set with Plasmodium falciparum [2] of 4 µM. Moreover, the IC50 in the data set with Trypanosoma cruzi is 15.8 µM; in data set [3] it was 9.07 µM; in data set [4] it was 12.1 µM; in the data set on Leishmania infantum it was 12 µM; in data set [5] it was > 32 µM.
`COc1cc(SC)ccc1C(=O)N1CCCC(C)C1` (centres undefined): the inhibition at 2 µM in the data set on Plasmodium falciparum [1] came to 45%. In addition, it took 4 µM to reach a half-maximal effect in the data set on Plasmodium falciparum [2] (EC50). Moreover, the half-maximal inhibitory concentration (IC50) (in the data set with Trypanosoma cruzi; in data set [3]; in data set [4]; in the data set with Leishmania infantum; in data set [5]) was > 32 µM in each case.
